According to patent publication US12275731B2, “Azaindole inhibitors of wild-type and mutant forms of LRRK2” (DANA-FARBER CANCER INSTITUTE, INC., priority 2018, dated 2025):

Legend:
Test in all cases: KinomeScan profiling
Type in all cases: binding
MLK1 = MLK1 (Homo sapiens, UniProt P80192); conditions: MLK1, 1 μM; read-out: % control
Outline: (§1)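 Percent-of-control values derive from RLU, calculated as (test − positive)/(negative − positive) × 100, where DMSO defines 100% and a positive control compound defines 0%. Each compound was tested at 1 μM in the 468-kinase panel; sub-35% readings indicate activity.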

MARK1 = MARK1 (Homo sapiens, UniProt Q9P0L2); conditions: MARK1, 1 μM; read-out: % control
Outline: as §1

AKT2 = molecular target: T1, AKT2 (Homo sapiens, UniProt P31751); conditions: AKT2, 1 μM; read-out: % control
T1 construct: purchased KinomeScan®
T1 sequence (P31751 whole entry): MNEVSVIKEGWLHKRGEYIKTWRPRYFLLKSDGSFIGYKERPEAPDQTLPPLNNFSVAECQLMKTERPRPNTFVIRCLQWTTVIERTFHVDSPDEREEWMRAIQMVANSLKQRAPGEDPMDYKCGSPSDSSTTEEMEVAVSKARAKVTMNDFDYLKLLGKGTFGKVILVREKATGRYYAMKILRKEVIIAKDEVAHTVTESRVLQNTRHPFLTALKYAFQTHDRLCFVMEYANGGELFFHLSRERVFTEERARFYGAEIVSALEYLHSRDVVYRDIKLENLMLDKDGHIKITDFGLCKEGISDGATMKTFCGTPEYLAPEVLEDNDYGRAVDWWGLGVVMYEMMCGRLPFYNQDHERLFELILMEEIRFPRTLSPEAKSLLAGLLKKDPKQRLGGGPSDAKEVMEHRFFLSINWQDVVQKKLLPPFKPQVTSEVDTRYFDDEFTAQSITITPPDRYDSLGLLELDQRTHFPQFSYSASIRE
Outline: as §1

LCK = LCK (Homo sapiens, UniProt P06239); conditions: read-out: % control
Outline: as §1

HASPIN = molecular target: T2, HASPIN (Homo sapiens, UniProt Q8TF76); conditions: read-out: % control
T2 sequence (Q8TF76 1-798): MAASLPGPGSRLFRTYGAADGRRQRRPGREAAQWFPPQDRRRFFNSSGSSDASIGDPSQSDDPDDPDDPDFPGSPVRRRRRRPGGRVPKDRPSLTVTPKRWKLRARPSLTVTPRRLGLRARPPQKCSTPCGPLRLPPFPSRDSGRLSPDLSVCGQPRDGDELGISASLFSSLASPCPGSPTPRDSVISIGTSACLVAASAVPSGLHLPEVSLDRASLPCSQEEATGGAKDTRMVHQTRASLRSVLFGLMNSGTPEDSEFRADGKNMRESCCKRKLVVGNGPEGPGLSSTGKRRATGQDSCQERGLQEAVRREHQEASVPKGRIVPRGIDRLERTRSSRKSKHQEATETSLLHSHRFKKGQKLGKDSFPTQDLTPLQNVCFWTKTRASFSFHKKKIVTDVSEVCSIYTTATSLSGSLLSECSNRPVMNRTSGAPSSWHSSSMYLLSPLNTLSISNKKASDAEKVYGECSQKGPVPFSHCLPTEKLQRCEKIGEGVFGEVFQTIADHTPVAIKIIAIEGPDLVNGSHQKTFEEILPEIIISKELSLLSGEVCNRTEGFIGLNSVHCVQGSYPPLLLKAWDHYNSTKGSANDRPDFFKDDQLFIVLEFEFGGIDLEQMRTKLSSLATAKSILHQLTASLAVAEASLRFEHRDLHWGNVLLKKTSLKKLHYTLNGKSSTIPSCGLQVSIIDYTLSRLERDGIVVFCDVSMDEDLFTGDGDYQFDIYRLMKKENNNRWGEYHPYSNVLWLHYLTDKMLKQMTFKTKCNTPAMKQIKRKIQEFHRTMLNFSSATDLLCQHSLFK
Outline: as §1

[1] = molecular target: T3, JAK2(JH1domain-catalytic) (Homo sapiens, UniProt O60674); conditions: read-out: % control
T3 construct: Janus kinase 2 (JAK2)(JH1domain-catalytic); purchased KinomeScan®
T3 sequence (O60674 849-1124 limits assumed): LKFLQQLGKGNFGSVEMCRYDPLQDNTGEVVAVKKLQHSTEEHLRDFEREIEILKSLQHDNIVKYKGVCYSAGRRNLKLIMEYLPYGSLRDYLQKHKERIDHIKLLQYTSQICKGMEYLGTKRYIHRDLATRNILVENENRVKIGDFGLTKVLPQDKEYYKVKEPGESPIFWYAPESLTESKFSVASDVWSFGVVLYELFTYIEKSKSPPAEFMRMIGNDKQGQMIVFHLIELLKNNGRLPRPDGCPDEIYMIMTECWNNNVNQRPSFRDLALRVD
Outline: as §1

ROS1 = ROS1 (Homo sapiens, UniProt P08922); conditions: ROS1, 1 μM; read-out: % control
ROS1, sequence (P08922 28-2347): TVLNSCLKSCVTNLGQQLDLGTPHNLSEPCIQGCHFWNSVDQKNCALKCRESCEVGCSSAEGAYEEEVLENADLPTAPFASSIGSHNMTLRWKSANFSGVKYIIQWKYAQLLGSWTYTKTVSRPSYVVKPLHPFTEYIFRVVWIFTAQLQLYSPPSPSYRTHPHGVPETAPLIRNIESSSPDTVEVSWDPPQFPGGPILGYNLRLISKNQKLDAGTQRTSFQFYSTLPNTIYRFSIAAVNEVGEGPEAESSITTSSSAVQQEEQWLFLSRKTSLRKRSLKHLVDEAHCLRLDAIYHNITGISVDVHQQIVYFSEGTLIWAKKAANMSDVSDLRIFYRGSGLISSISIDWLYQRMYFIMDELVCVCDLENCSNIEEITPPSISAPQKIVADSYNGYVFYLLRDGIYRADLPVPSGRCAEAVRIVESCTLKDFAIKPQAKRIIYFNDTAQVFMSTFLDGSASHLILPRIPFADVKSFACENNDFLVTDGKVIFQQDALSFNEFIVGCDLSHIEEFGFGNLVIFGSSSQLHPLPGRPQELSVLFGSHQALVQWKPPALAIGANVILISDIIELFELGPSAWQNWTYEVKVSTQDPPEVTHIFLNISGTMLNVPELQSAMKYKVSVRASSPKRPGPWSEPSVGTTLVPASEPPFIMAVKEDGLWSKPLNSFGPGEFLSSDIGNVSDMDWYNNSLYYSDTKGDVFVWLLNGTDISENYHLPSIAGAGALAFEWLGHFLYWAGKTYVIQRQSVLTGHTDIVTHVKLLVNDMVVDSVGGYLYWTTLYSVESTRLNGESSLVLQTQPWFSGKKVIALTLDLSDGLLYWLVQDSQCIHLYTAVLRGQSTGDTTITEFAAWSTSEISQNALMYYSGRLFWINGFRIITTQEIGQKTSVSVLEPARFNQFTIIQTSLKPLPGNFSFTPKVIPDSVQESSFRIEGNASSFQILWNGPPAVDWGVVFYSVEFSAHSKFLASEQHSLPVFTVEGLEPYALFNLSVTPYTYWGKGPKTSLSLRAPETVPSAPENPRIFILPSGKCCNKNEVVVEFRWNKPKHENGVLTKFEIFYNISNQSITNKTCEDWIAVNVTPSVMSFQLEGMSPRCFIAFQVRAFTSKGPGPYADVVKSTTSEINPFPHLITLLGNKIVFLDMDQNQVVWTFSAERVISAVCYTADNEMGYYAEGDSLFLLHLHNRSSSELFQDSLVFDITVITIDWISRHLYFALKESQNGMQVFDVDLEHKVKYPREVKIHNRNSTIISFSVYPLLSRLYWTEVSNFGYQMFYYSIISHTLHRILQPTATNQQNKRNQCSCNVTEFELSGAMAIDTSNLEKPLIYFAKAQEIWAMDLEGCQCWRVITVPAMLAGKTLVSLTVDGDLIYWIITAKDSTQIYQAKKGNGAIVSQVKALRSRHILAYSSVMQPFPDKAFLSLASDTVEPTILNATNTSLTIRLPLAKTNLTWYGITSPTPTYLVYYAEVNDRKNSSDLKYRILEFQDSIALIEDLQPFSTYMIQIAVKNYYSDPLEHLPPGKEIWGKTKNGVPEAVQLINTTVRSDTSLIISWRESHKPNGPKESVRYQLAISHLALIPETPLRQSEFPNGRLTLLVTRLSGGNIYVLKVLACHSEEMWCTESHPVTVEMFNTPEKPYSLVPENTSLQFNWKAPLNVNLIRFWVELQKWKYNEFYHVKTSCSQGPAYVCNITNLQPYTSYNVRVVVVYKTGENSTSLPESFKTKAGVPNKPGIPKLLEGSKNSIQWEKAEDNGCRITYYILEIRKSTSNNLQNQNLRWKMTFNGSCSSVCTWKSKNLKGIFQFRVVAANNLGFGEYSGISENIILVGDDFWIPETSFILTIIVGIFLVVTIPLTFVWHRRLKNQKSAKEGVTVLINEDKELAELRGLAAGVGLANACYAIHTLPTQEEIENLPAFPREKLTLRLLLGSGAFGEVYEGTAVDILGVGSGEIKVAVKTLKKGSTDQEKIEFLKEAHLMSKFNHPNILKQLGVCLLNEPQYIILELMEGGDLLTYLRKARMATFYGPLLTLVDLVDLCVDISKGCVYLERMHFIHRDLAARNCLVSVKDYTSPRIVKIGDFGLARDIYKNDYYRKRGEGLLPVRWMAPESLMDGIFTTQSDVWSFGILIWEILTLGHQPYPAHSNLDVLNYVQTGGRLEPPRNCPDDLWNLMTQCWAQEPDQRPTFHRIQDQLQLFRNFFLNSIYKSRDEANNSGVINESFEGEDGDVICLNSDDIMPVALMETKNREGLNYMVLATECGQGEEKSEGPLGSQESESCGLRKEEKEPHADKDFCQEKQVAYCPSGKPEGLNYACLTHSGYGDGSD
Outline: as §1

PRKX = molecular target: T4, PRKX (Homo sapiens, UniProt P51817); conditions: read-out: % control
T4 sequence (P51817 1-358): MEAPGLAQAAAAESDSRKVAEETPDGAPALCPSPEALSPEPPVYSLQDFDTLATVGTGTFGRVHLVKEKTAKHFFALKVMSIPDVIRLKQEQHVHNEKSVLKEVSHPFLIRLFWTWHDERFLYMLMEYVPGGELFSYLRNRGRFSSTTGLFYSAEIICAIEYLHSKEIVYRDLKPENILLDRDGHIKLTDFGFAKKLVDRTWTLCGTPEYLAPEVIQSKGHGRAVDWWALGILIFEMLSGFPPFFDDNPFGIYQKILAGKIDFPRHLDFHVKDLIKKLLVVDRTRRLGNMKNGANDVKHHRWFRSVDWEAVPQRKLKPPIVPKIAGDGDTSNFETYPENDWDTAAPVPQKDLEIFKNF
Outline: as §1

CASK = molecular target: T5, CASK (Homo sapiens, UniProt O14936); conditions: read-out: % control
T5 sequence (O14936 1-926): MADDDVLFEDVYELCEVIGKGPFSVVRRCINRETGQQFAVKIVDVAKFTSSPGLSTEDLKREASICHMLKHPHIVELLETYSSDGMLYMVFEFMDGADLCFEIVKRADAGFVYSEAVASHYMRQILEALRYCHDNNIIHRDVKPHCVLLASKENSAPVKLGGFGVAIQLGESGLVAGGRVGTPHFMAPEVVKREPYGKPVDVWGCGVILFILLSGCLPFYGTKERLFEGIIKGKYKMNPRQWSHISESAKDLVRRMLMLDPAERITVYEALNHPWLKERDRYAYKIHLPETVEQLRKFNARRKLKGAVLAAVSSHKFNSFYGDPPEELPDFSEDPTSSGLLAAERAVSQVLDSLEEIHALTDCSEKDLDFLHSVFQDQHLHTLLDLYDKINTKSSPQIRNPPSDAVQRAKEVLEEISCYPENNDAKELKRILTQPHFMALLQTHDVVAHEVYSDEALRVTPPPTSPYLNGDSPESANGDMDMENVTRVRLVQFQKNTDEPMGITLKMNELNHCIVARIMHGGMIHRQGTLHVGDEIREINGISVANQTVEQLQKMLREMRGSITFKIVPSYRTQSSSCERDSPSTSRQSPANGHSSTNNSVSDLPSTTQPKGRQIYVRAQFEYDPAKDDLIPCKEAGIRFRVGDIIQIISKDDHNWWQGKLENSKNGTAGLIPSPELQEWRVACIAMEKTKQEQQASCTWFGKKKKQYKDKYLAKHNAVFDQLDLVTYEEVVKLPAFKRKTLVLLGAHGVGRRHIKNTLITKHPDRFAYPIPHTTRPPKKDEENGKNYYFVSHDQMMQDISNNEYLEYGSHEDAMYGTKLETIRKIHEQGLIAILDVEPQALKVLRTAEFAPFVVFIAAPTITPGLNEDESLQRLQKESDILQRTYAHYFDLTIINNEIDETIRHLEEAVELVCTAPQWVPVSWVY
Outline: as §1

MST1R = MST1R (Homo sapiens, UniProt Q04912); conditions: read-out: % control
MST1R, sequence (Q04912 25-1400): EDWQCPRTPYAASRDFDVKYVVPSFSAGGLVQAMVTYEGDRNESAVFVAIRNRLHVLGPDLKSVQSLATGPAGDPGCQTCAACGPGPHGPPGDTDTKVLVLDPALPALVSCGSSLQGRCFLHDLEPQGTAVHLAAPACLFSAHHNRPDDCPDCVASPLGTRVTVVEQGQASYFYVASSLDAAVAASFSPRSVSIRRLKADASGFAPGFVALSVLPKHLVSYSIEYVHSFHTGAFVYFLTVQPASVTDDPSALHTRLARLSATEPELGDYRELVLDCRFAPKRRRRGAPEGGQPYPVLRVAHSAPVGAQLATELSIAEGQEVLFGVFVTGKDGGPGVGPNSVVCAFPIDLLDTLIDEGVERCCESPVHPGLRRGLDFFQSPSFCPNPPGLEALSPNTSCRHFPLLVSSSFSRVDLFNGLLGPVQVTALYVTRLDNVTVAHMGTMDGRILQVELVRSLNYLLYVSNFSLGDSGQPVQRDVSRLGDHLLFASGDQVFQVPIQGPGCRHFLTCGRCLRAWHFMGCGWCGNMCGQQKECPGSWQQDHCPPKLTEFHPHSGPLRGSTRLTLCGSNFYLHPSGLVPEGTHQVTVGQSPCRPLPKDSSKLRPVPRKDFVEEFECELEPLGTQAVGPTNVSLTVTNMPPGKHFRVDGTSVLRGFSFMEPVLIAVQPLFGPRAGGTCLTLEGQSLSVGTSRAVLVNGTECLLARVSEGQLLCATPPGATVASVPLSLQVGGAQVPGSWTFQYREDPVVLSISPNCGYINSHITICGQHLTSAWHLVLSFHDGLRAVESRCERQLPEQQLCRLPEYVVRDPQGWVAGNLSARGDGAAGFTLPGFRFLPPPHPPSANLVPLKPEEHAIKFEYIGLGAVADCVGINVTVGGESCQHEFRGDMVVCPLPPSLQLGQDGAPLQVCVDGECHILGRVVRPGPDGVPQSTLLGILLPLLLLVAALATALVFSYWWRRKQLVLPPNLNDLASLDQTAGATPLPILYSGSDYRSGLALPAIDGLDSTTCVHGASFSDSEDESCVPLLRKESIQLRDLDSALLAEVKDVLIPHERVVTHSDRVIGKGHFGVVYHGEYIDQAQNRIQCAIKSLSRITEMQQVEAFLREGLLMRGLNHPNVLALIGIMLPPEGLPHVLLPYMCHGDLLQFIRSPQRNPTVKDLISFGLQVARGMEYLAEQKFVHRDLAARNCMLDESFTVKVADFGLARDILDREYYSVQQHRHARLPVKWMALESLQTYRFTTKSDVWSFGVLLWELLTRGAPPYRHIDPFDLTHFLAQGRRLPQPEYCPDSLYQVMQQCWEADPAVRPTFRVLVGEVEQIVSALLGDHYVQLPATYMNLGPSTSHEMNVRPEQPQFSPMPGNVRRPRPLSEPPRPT
Outline: as §1

PIM2 = molecular target: T6, PIM2 (Homo sapiens, UniProt Q9P1W9); conditions: PIM2, 1 μM; read-out: % control
T6 construct: purchased KinomeScan® (panel service)
T6 sequence (Q9P1W9 whole entry): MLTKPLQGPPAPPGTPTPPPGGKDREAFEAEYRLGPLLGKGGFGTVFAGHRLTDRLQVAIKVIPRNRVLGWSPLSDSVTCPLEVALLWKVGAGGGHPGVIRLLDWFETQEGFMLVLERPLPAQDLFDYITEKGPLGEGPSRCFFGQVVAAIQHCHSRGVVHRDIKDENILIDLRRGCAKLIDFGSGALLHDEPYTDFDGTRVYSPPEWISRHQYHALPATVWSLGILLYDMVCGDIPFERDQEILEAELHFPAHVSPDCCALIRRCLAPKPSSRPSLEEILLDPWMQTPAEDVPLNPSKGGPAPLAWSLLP
Outline: as §1

Structure (SMILES)	remaining binding at 1 µM (MLK1) [%]	remaining binding at 1 µM (MARK1) [%]	remaining binding at 1 µM (AKT2) [%]	remaining binding at 1 µM (LCK) [%]	remaining binding at 1 µM (HASPIN) [%]	remaining binding at 1 µM [1] [%]	remaining binding at 1 µM (ROS1) [%]	remaining binding at 1 µM (PRKX) [%]	remaining binding at 1 µM (CASK) [%]	remaining binding at 1 µM (MST1R) [%]	remaining binding at 1 µM (PIM2) [%]
CNc1c(-c2ccc(C(=O)N3CCC(N4CCOCC4)CC3)cc2)cnc2[nH]cc(Cl)c12 [Compound 96, (4-(3-chloro-4-(methylamino)-1H-pyrrolo[2,3-b]pyridin-5-yl)phenyl)(4-morpholinopiperidin-1-yl)methanone]	96	72	100	100	1.3	29	89	100	94	88	100
O=C(c1ccc(-c2cnc3[nH]cc(Cl)c3c2NC2CCCC2)cc1)N1CCC(N2CCOCC2)CC1 [Compound 101, (4-(3-chloro-4-(cyclopentylamino)-1H-pyrrolo[2,3-b]pyridin-5-yl)phenyl)(4-morpholinopiperidin-1-yl)methanone]	96	80	84	100	22	100	73	82	100	77	94
CNc1c(-c2cnn([C@H]3CCN(C(C)=O)C[C@@H]3F)c2)cnc2[nH]cc(Cl)c12 [Compound 77, 1-((3S,4S)-4-(4-(3-chloro-4-(methylamino)-1H-pyrrolo[2,3-b]pyridin-5-yl)-1H-pyrazol-1-yl)-3-fluoropiperidin-1-yl)ethan-1-one]	91	71	100	96	9.8	7.9	74	100	95	100	100
